These results are taken from the supplement of paper PMC11208160.
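Also: IS621 bridge recombinase in Escherichia coli cells against a fixed T5 target plasmid.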

This series is described as follows: recombinant UMI read abundance after kanamycin selection (control-corrected) (log10(CPM+1)); higher = more efficient recombination; extreme values may be limits of the assay; sequences stand for … in AGTGCAGAGAAAATCGGCCAGTTTTCTCTGCCTGCAGTCCGCATGCCGTGGGACCCCTTGGGTTCTAACCTGTTGCCTAGATTTATGCAGCGGACTGCCTTTCTCCCAAAGTGATAAACCGG…AGGTTGGTTTCACT; site = the 11-nt donor. The gist of the method:
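Counts of recombinant UMIs were reported as log10(CPM+1). Before that, they were converted to CPM, averaged over replicates and scaled using control-derived factors. They came from PCR across the donor–target junction after Escherichia coli carrying the pair library and target plasmid was plated on IPTG (0.07 mM) plus kanamycin, or unselected, in two replicates each.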
In the case of “CCGCTTACATGGACCGGTTTTCCCGGTAATCCGTATTTGCT (site CCGATTACTAG)”, the “recombinant UMI read abundance (log10)” value amounted to 0.

Regarding “CCGCTTACATGGACCGGTTTTCCCGGTAATCCGTATTTGCT (site CCGCTTACTAG)”, the “recombinant UMI read abundance (log10)” value came out at 1.48.

With “CCGCTTACATGGACCGGTTTTCCCGGTAATCCGTATTTGCT (site CCGGTTACTAG)”, the “recombinant UMI read abundance (log10)” value worked out at 0.

Turning to “CCGCTTACATGGACCGGTTTTCCCGGTAATCCGTATTTGCT (site CCGTTTACTAG)”, the “recombinant UMI read abundance (log10)” value is 0.

Regarding “CCGCTTCCATGGACCGGTTTTCCCGGTAATCCGTATTTGTC (site CCGCTTCCTGA)”, the “recombinant UMI read abundance (log10)” value worked out at 0.

In the case of “CCGCTTTCATGGACCGGTTTTCCCGGTAATCCGTATTTGAG (site CCGCTTTCTCT)”, the “recombinant UMI read abundance (log10)” value was found to be 0.19.

In the case of “CCGGAAACATGGACCGGTTTTCCCGGTAATCCGTATTTGTT (site CCGGAAACTAA)”, the “recombinant UMI read abundance (log10)” value was determined as 1.15.

Turning to “CCGGATCCATGGACCGGTTTTCCCGGTAATCCGTATTTGTT (site CCGGATCCTAA)”, the “recombinant UMI read abundance (log10)” value stood at 0.556.

On to “CCGGATCCATGGACCGGTTTTCCCGGTAATCCGTATTTGTT (site CGGAATCCTAA)”, for which the “recombinant UMI read abundance (log10)” value worked out at 0.00344.

Consider “CCGGCTACATGGACCGGTTTTCCCGGTAATCCGTATTTGAT (site CCGGCTACTAT)”, for which the “recombinant UMI read abundance (log10)” value amounted to 1.37.

As to “CCGGGGCCATGGACCGGTTTTCCCGGTAATCCGTATTTGAT (site CCGGGGCCTAT)”, the “recombinant UMI read abundance (log10)” value amounted to 0.04.

For the sequence “CCGGGTGCATGGACCGGTTTTCCCGGTAATCCGTATTTGAT (site CCAGGTGCTAT)”, the “recombinant UMI read abundance (log10)” value worked out at 1.63.

On to “CCGGGTGCATGGACCGGTTTTCCCGGTAATCCGTATTTGAT (site CCCGGTGCTAT)”, for which the “recombinant UMI read abundance (log10)” value was determined as 0.797.

As to “CCGGGTGCATGGACCGGTTTTCCCGGTAATCCGTATTTGAT (site CCGGGTGCTAT)”, the “recombinant UMI read abundance (log10)” value amounted to 1.25.

Consider “CCGGGTGCATGGACCGGTTTTCCCGGTAATCCGTATTTGAT (site CCTGGTGCTAT)”, for which the “recombinant UMI read abundance (log10)” value stood at 0.428.

For “CCGGGTTCATGGACCGGTTTTCCCGGTAATCCGTATTTGGC (site CCGGGTTCTGC)”, the “recombinant UMI read abundance (log10)” value is 1.57.

In the case of “CCGTCAACATGGACCGGTTTTCCCGGTAATCCGTATTTGCT (site CCGTCAACTAG)”, the “recombinant UMI read abundance (log10)” value turned out to be 0.

In the case of “CCGTCGCCATGGACCGGTTTTCCCGGTAATCCGTATTTGTC (site CCGTCGCCTGA)”, the “recombinant UMI read abundance (log10)” value came to 0.

For “CCGTTACCATGGACCGGTTTTCCCGGTAATCCGTATTTGAG (site CCGTTACCTCT)”, the “recombinant UMI read abundance (log10)” value is 0.0156.

Take “CCGTTAGCATGGACCGGTTTTCCCGGTAATCCGTATTTGAG (site CCGTTAGCTCA)”: the “recombinant UMI read abundance (log10)” value stood at 0.0714.

For the sequence “CCGTTAGCATGGACCGGTTTTCCCGGTAATCCGTATTTGAG (site CCGTTAGCTCC)”, the “recombinant UMI read abundance (log10)” value turned out to be 0.006.

In the case of “CCGTTAGCATGGACCGGTTTTCCCGGTAATCCGTATTTGAG (site CCGTTAGCTCG)”, the “recombinant UMI read abundance (log10)” value is 0.00749.

As for “CCGTTAGCATGGACCGGTTTTCCCGGTAATCCGTATTTGAG (site CCGTTAGCTCT)”, the “recombinant UMI read abundance (log10)” value was 0.692.

In the case of “CCGTTCGCATGGACCGGTTTTCCCGGTAATCCGTATTTGTG (site CCGTTAGCTCA)”, the “recombinant UMI read abundance (log10)” value turned out to be 0.00765.

For the sequence “CCGTTCGCATGGACCGGTTTTCCCGGTAATCCGTATTTGTG (site CCGTTCGCTCA)”, the “recombinant UMI read abundance (log10)” value worked out at 0.0261.

“CCGTTCGCATGGACCGGTTTTCCCGGTAATCCGTATTTGTG (site CCGTTGGCTCA)”: the “recombinant UMI read abundance (log10)” value was 0.0144.

Consider “CCGTTCGCATGGACCGGTTTTCCCGGTAATCCGTATTTGTG (site CCGTTTGCTCA)”, for which the “recombinant UMI read abundance (log10)” value came to 0.00651.

Consider “CCGTTGGCATGGACCGGTTTTCCCGGTAATCCGTATTTGTG (site CCGTTAGCTCA)”, for which the “recombinant UMI read abundance (log10)” value is 0.661.

For the sequence “CCGTTGGCATGGACCGGTTTTCCCGGTAATCCGTATTTGTG (site CCGTTCGCTCA)”, the “recombinant UMI read abundance (log10)” value is 0.0171.

Take “CCGTTGGCATGGACCGGTTTTCCCGGTAATCCGTATTTGTG (site CCGTTGGCTCA)”: the “recombinant UMI read abundance (log10)” value is 0.286.

On to “CCGTTGGCATGGACCGGTTTTCCCGGTAATCCGTATTTGTG (site CCGTTTGCTCA)”, for which the “recombinant UMI read abundance (log10)” value was found to be 0.00375.

Consider “CCGTTGTCATGGACCGGTTTTCCCGGTAATCCGTATTTGTC (site CCGTTGTCTGA)”, for which the “recombinant UMI read abundance (log10)” value stood at 0.

Turning to “CCGTTTACATGGACCGGTTTTCCCGGTAATCCGTATTTGAT (site CCGTTTACTAA)”, the “recombinant UMI read abundance (log10)” value was found to be 0.0556.

“CCGTTTACATGGACCGGTTTTCCCGGTAATCCGTATTTGAT (site CCGTTTACTAC)”: the “recombinant UMI read abundance (log10)” value amounted to 0.

Consider “CCGTTTACATGGACCGGTTTTCCCGGTAATCCGTATTTGAT (site CCGTTTACTAG)”, for which the “recombinant UMI read abundance (log10)” value turned out to be 0.

As to “CCGTTTACATGGACCGGTTTTCCCGGTAATCCGTATTTGAT (site CCGTTTACTAT)”, the “recombinant UMI read abundance (log10)” value is 0.

As for “CCTAAAGCATGGACCGGTTTTCCCGGTAATCCGTATTTGAA (site CCTAAAGCTAT)”, the “recombinant UMI read abundance (log10)” value worked out at 0.

Regarding “CCTAAAGCATGGACCGGTTTTCCCGGTAATCCGTATTTGAA (site CCTAAAGCTCT)”, the “recombinant UMI read abundance (log10)” value was found to be 0.00343.

On to “CCTAAAGCATGGACCGGTTTTCCCGGTAATCCGTATTTGAA (site CCTAAAGCTGT)”, for which the “recombinant UMI read abundance (log10)” value worked out at 0.

With “CCTAAAGCATGGACCGGTTTTCCCGGTAATCCGTATTTGAA (site CCTAAAGCTTT)”, the “recombinant UMI read abundance (log10)” value was found to be 0.699.

Consider “CCTAAAGCATGGACCGGTTTTCCCGGTAATCCGTATTTGTT (site CCTAAAGCTAA)”, for which the “recombinant UMI read abundance (log10)” value is 0.0032.

“CCTAAAGCATGGACCGGTTTTCCCGGTAATCCGTATTTGTT (site CCTAAAGCTAC)”: the “recombinant UMI read abundance (log10)” value is 0.

Take “CCTAAAGCATGGACCGGTTTTCCCGGTAATCCGTATTTGTT (site CCTAAAGCTAG)”: the “recombinant UMI read abundance (log10)” value amounted to 0.

As to “CCTAAAGCATGGACCGGTTTTCCCGGTAATCCGTATTTGTT (site CCTAAAGCTAT)”, the “recombinant UMI read abundance (log10)” value stood at 0.00347.

Regarding “CCTAACACATGGACCGGTTTTCCCGGTAATCCGTATTTGGC (site CCTAAAACTGC)”, the “recombinant UMI read abundance (log10)” value was 0.

In the case of “CCTAACACATGGACCGGTTTTCCCGGTAATCCGTATTTGGC (site CCTAACACTGC)”, the “recombinant UMI read abundance (log10)” value was 0.

In the case of “CCTAACACATGGACCGGTTTTCCCGGTAATCCGTATTTGGC (site CCTAAGACTGC)”, the “recombinant UMI read abundance (log10)” value was 0.

For “CCTAACACATGGACCGGTTTTCCCGGTAATCCGTATTTGGC (site CCTAATACTGC)”, the “recombinant UMI read abundance (log10)” value amounted to 0.

Turning to “CCTAACGCATGGACCGGTTTTCCCGGTAATCCGTATTTGAT (site CCTAAAGCTAT)”, the “recombinant UMI read abundance (log10)” value was found to be 0.

With “CCTAACGCATGGACCGGTTTTCCCGGTAATCCGTATTTGAT (site CCTAACGCTAT)”, the “recombinant UMI read abundance (log10)” value is 0.

For the sequence “CCTAACGCATGGACCGGTTTTCCCGGTAATCCGTATTTGAT (site CCTAAGGCTAT)”, the “recombinant UMI read abundance (log10)” value worked out at 0.

“CCTAACGCATGGACCGGTTTTCCCGGTAATCCGTATTTGAT (site CCTAATGCTAT)”: the “recombinant UMI read abundance (log10)” value was 0.
